The source made the active and inactive calls. The rule behind the calls is not given here.
What was measured:
[1] = biological target: MAP kinase-interacting serine/threonine-protein kinase 1 (Homo sapiens) (UniProt Q9BUB5); assay: Inhibition of MNK1 (unknown origin) at 1 uM
[2] = biological target: Rho-associated protein kinase 1 (Homo sapiens) (UniProt Q13464); assay: Inhibition of ROCK1 (unknown origin) at 1 uM
[3] = biological target: Serine/threonine-protein kinase PLK3 (Homo sapiens) (UniProt Q9H4B4); assay: Inhibition of PLK3 (unknown origin) at 1 uM
[4] = biological target: NUAK family SNF1-like kinase 1 (Homo sapiens) (UniProt O60285); assay: Inhibition of ARK5 (unknown origin) at 1 uM
[5] = biological target: Inhibitor of nuclear factor kappa-B kinase subunit beta (Homo sapiens) (UniProt O14920); assay: Inhibition of IKKbeta (unknown origin) at 1 uM
[6] = biological target: Protein kinase C delta type (Homo sapiens) (UniProt Q05655); assay: Inhibition of PKCdelta (unknown origin)at 1 uM
[7] = Protein binding in monkey plasma by equilibrium dialysis by equilibrium dialysis; format: ADME, cell-free, Macaca mulatta; settings: rhesus monkey, read-out: PPB (converted)
[8] = biological target: RAF proto-oncogene serine/threonine-protein kinase (Homo sapiens) (UniProt P04049); assay: Inhibition of RAF1 (unknown origin) at 1 uM
[9] = biological target: Dual specificity mitogen-activated protein kinase kinase 2 (Homo sapiens) (UniProt P36507); assay: Inhibition of MEK2 (unknown origin) at 1 uM
[10] = biological target: SRSF protein kinase 1 (Homo sapiens) (UniProt Q96SB4); assay: Inhibition of SRPK1 (unknown origin) at 1 uM
[11] = biological target: Casein kinase I isoform gamma-2 (Homo sapiens) (UniProt P78368); assay: Inhibition of CK1gamma2 (unknown origin) at 1 uM
[12] = biological target: Ribosomal protein S6 kinase alpha-2 (Homo sapiens) (UniProt Q15349); assay: Inhibition of RSK3 (unknown origin) at 1 uM
[13] = biological target: Dual specificity protein kinase CLK1 (Homo sapiens) (UniProt P49759); assay: Inhibition of CLK1 (unknown origin) at 1 uM
[14] = biological target: Mitogen-activated protein kinase kinase kinase kinase 3 (Homo sapiens) (UniProt Q8IVH8); assay: Inhibition of GLK (unknown origin) at 1 uM
[15] = Protein binding in Beagle dog plasma by equilibrium dialysis; format: ADME, cell-free, Canis lupus familiaris; settings: read-out: PPB (converted)
[16] = biological target: Serine/threonine-protein kinase Chk1 (Homo sapiens) (UniProt O14757); assay: Inhibition of CHK1 (unknown origin) at 1 uM
[17] = biological target: Insulin receptor (Homo sapiens) (UniProt P06213); assay: Inhibition of IR (unknown origin) at 1 uM
[18] = biological target: Protein kinase C beta type (Homo sapiens) (UniProt P05771); assay: Inhibition of PKCb1 (unknown origin) at 1 uM
[19] = biological target: Dual specificity protein kinase CLK3 (Homo sapiens) (UniProt P49761); assay: Inhibition of CLK3 (unknown origin) at 1 uM
[20] = biological target: Calcium/calmodulin-dependent protein kinase type II subunit beta (Homo sapiens) (UniProt Q13554); assay: Inhibition of CAMK2B (unknown origin) at 1 uM
[21] = Protein binding in monkey plasma assessed as fraction unbound by equilibrium dialysis; format: ADME, cell-free, Macaca mulatta; settings: rhesus monkey
[22] = biological target: Serine/threonine-protein kinase ULK1 (Homo sapiens) (UniProt O75385); assay: Inhibition of ULK1 (unknown origin) at 1 uM
[23] = biological target: Beta-adrenergic receptor kinase 1 (Homo sapiens) (UniProt P25098); assay: Inhibition of GRK2 (unknown origin) at 1 uM
[24] = biological target: Tyrosine-protein kinase JAK1 (Homo sapiens) (UniProt P23458); assay: Inhibition of JAK1 (unknown origin) at 1 uM
[25] = Protein binding in human plasma by equilibrium dialysis; format: ADME, cell-free; settings: read-out: PPB (converted)
[26] = biological target: Myosin-IIIa (Homo sapiens) (UniProt Q8NEV4); assay: Inhibition of MYO3A (unknown origin) at 1 uM
[27] = biological target: Proto-oncogene tyrosine-protein kinase receptor Ret (Homo sapiens) (UniProt P07949); assay: Inhibition of RET (unknown origin) at 1 uM
[28] = biological target: Angiopoietin-1 receptor (Homo sapiens) (UniProt Q02763); assay: Inhibition of TIE2 (unknown origin) at 1 uM
[29] = biological target: Ephrin type-B receptor 1 (Homo sapiens) (UniProt P54762); assay: Inhibition of EPHB1 (unknown origin) at 1 uM
[30] = biological target: Aurora kinase A (Homo sapiens) (UniProt O14965); assay: Inhibition of Aurora A (unknown origin) at 1 uM
[31] = biological target: RAC-beta serine/threonine-protein kinase (Homo sapiens) (UniProt P31751); assay: Inhibition of AKT2 (unknown origin) at 1 uM
[32] = biological target: Serine/threonine-protein kinase DCLK1 (Homo sapiens) (UniProt O15075); assay: Inhibition of DCAMKL1 (unknown origin) at 1 uM
[33] = biological target: Ephrin type-A receptor 7 (Homo sapiens) (UniProt Q15375); assay: Inhibition of EPHA7 (unknown origin) at 1 uM
[34] = Protein binding in ICR mouse plasma by equilibrium dialysis; format: ADME, cell-free; settings: read-out: PPB (converted)
[35] = biological target: Dual specificity tyrosine-phosphorylation-regulated kinase 1A (Homo sapiens) (UniProt Q13627); assay: Inhibition of DYRK1A (unknown origin) at 1 uM
[36] = biological target: Indoleamine 2,3-dioxygenase 1 (Mus musculus) (UniProt P28776); assay: In vivo inhibition of IDO1 in BALB/c mouse xenografted with human HCT-116 cells assessed as suppression of IDO1 expression in tumor by immunohistochemical assay; format: functional, organism-based
[37] = biological target: Tau-tubulin kinase 2 (Homo sapiens) (UniProt Q6IQ55); assay: Inhibition of TTBK2 (unknown origin) at 1 uM
[38] = biological target: Ribosomal protein S6 kinase alpha-1 (Homo sapiens) (UniProt Q15418); assay: Inhibition of RSK1 (unknown origin) at 1 uM
[39] = biological target: cGMP-dependent protein kinase 1 (Homo sapiens) (UniProt Q13976); assay: Inhibition of PKG1beta (unknown origin) at 1 uM
[40] = biological target: Myosin light chain kinase family member 4 (Homo sapiens) (UniProt Q86YV6); assay: Inhibition of MYLK4 (unknown origin) at 1 uM
[41] = biological target: Fibroblast growth factor receptor 2 (Homo sapiens) (UniProt P21802); assay: Inhibition of FGFR2 (unknown origin) at 1 uM
[42] = biological target: Receptor-interacting serine/threonine-protein kinase 2 (Homo sapiens) (UniProt O43353); assay: Inhibition of RIPK2 (unknown origin) at 1 uM
[43] = biological target: Calcium/calmodulin-dependent protein kinase type 1D (Homo sapiens) (UniProt Q8IU85); assay: Inhibition of CAMK1D (unknown origin) at 1 uM
[44] = biological target: CDK2/Cyclin O (Homo sapiens) (UniProt P24941+P22674); assay: Inhibition of CDK2/cyclin-O (unknown origin) at 1 uM; format: protein-complex assay
[45] = Tmax in Sprague-Dawley rat at 50 mg/kg, po; format: ADME, organism-based; settings: in vivo
[46] = biological target: Serine/threonine-protein kinase SIK3 (Homo sapiens) (UniProt Q9Y2K2); assay: Inhibition of SIK3 (unknown origin) at 1 uM

Chain of Fibroblast growth factor receptor 2 (Homo sapiens) (P21802 22-821 limits assumed): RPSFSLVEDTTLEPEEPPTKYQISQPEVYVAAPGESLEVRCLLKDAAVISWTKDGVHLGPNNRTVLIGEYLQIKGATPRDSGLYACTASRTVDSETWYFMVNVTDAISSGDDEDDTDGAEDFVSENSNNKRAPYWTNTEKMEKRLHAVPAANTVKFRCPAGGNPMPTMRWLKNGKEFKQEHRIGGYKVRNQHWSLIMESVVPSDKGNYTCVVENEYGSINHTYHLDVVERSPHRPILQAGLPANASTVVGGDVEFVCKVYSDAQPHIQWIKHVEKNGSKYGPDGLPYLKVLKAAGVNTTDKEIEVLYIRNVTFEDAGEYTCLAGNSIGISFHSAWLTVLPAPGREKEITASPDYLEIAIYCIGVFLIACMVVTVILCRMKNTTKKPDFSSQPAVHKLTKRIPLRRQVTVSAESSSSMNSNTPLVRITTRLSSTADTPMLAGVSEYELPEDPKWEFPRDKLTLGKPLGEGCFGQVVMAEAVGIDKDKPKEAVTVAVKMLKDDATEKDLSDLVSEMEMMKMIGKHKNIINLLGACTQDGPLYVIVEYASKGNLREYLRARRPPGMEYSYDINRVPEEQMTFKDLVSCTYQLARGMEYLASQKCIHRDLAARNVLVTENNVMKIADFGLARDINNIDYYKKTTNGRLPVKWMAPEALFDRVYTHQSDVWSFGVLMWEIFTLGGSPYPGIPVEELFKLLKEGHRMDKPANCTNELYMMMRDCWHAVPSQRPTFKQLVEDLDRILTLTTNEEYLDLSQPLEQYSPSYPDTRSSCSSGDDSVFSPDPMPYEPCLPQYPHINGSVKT
Chain of Myosin-IIIa (Homo sapiens) (Q8NEV4 whole entry): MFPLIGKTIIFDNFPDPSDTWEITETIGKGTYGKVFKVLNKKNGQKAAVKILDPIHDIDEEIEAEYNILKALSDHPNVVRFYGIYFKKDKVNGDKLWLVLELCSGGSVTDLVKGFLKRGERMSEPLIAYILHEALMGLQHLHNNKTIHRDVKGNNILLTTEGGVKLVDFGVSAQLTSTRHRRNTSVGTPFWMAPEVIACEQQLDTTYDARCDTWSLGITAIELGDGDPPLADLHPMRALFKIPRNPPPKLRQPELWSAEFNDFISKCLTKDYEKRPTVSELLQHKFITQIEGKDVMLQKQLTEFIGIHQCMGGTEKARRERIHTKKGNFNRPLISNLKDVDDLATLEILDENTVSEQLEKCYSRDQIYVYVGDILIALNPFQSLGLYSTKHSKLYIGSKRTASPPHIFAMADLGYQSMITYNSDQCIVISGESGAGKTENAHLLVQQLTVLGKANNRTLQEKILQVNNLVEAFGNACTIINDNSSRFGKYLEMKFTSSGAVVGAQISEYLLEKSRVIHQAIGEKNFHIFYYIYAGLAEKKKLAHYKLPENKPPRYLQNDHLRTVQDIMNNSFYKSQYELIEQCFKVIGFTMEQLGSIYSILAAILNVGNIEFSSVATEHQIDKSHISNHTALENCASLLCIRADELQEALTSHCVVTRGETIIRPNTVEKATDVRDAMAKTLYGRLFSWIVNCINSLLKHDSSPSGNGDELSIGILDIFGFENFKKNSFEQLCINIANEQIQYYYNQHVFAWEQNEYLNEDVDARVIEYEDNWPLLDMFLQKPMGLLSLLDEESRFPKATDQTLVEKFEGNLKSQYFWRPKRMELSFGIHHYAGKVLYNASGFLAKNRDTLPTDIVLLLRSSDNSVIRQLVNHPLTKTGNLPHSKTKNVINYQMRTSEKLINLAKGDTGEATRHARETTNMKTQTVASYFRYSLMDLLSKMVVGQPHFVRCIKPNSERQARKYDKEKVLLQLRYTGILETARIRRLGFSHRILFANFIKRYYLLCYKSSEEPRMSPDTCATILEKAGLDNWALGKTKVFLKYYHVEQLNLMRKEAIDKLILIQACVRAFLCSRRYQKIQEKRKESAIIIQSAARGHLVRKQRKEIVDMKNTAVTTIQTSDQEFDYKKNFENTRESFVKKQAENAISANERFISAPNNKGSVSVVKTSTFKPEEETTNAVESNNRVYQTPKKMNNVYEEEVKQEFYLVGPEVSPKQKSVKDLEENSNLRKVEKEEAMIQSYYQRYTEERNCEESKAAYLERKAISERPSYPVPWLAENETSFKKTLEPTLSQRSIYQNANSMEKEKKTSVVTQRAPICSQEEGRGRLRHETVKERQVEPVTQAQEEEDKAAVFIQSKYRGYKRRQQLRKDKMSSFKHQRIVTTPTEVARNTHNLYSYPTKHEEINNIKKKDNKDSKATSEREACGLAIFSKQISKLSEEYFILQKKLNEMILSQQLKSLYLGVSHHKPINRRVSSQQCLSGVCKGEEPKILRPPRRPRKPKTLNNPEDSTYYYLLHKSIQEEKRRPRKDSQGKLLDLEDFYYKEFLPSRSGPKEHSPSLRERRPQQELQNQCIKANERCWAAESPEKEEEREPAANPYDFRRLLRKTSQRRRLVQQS
Chain of Calcium/calmodulin-dependent protein kinase type II subunit beta (Homo sapiens) (Q13554 whole entry): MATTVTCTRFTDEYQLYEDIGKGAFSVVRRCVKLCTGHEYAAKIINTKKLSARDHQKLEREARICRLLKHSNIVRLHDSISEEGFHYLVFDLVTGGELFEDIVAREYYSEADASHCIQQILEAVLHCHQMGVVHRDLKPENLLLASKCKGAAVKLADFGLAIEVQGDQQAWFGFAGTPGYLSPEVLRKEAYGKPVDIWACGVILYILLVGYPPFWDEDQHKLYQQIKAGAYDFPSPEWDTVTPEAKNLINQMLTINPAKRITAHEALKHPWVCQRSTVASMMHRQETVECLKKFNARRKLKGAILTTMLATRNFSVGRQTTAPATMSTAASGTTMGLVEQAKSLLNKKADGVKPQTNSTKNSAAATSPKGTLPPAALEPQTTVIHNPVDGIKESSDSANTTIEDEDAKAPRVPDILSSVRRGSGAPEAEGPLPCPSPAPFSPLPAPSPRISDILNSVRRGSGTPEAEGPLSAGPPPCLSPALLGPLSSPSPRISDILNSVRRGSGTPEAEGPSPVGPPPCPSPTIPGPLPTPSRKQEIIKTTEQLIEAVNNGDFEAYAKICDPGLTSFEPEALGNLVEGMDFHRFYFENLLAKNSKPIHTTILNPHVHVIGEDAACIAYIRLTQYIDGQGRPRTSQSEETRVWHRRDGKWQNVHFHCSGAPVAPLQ
Chain of Dual specificity protein kinase CLK1 (Homo sapiens) (P49759 whole entry, looked up): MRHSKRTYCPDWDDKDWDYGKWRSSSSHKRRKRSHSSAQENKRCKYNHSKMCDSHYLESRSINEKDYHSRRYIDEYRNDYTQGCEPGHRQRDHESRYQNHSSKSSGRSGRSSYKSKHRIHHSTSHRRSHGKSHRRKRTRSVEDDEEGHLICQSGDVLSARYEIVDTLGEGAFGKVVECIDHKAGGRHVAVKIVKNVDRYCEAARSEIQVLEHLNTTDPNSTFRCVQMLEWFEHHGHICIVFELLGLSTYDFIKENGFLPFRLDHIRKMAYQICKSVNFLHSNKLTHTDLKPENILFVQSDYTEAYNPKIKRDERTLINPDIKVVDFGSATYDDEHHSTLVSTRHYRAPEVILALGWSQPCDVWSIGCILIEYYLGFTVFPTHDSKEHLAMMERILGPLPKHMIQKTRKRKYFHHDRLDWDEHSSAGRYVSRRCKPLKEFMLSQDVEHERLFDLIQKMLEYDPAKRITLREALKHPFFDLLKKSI
Chain of Ephrin type-B receptor 1 (Homo sapiens) (P54762 whole entry): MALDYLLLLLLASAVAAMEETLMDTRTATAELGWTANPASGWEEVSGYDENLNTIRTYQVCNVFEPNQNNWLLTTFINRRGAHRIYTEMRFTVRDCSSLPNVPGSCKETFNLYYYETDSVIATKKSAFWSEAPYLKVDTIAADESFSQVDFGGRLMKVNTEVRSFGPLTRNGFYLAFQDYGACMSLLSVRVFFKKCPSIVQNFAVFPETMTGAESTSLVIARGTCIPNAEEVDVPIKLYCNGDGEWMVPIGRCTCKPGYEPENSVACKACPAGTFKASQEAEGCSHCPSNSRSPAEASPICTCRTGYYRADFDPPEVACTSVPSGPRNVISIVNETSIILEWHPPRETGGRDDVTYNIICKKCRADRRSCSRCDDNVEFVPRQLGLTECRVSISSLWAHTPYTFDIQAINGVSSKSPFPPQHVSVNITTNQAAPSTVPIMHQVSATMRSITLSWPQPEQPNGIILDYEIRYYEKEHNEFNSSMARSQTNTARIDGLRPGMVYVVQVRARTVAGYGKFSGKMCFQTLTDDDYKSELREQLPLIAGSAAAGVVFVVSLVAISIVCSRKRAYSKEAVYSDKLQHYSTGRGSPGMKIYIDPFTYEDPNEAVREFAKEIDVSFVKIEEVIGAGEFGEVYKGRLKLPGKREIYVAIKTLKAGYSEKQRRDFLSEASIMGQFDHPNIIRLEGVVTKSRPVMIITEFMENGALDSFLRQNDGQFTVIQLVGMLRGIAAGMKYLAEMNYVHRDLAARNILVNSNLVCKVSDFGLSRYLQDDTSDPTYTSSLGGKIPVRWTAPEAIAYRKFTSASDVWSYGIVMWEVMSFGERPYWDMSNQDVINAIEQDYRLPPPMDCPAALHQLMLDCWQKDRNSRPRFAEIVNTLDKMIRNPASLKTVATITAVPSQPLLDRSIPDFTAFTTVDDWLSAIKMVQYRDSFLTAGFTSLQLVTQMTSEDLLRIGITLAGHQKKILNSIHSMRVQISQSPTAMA
Chain of RAC-beta serine/threonine-protein kinase (Homo sapiens) (P31751 whole entry): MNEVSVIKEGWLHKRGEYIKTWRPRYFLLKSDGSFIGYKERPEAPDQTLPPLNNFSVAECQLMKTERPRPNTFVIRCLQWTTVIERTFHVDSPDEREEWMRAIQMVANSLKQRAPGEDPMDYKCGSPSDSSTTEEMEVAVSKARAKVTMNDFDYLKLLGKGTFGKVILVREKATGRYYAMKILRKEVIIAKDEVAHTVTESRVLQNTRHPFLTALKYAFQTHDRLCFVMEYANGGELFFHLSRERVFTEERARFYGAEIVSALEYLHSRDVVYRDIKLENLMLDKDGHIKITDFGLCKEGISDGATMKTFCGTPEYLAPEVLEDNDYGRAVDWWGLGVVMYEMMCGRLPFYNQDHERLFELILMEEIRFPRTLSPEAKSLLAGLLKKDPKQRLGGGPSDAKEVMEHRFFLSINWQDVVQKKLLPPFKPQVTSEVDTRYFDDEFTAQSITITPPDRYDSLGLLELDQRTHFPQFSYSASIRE

## OCCOCc1cn(CCNc2nonc2/C(=N/O)Nc2ccc(F)c(Br)c2)nn1
[1]
  inhibition: inactive
[2]
  inhibition: inactive
[3]
  inhibition: inactive
[4]
  inhibition: inactive
[5]
  inhibition: inactive
[6]
  inhibition: inactive
[7]
  fraction unbound: 0.0763
[8]
  inhibition: inactive
[9]
  inhibition: inactive
[10]
  inhibition: inactive
[11]
  inhibition: inactive
[12]
  inhibition: inactive
[13]
  inhibition: inactive
[14]
  inhibition: inactive
[15]
  fraction unbound: 0.0498
[16]
  inhibition: inactive
[17]
  inhibition: inactive
[18]
  inhibition: inactive
[19]
  inhibition: inactive
[20]
  inhibition: inactive
[21]
  fraction unbound: 0.0763
[22]
  inhibition: inactive
[23]
  inhibition: inactive
[24]
  inhibition: inactive
[25]
  fraction unbound: 0.0411
[26]
  inhibition: inactive
[27]
  inhibition: inactive
[28]
  inhibition: inactive
[29]
  inhibition: inactive
[30]
  inhibition: inactive
[31]
  inhibition: inactive
[32]
  inhibition: inactive
[33]
  inhibition: inactive
[34]
  fraction unbound: 0.0968
[35]
  inhibition: inactive
[36]
  inhibition: Active
[37]
  inhibition: inactive
[38]
  inhibition: inactive
[39]
  inhibition: inactive
[40]
  inhibition: inactive
[41]
  inhibition: inactive
[42]
  inhibition: inactive
[43]
  inhibition: inactive
[44]
  inhibition: inactive
[45]
  Tmax: 1.3 h
[46]
  inhibition: inactive

From ChEMBL document CHEMBL5055685, “Discovery of the First Potent IDO1/IDO2 Dual Inhibitors: A Promising Strategy for Cancer Immunotherapy” (J Med Chem, 2021)
